# Laboratory results published in patent US20200222474A1, “COMPOSITIONS AND METHODS FOR INCREASING PHYTOCHEMICAL BIOAVAILABLITY AND BIOACTIVITY” (North Carolina State University, priority 2017, published 2020).
# Test system: L. acidophilus NCFM
# Experiment: RNA-seq transcriptional analysis of L. acidophilus NCFM growing on plant glycosides
# Type: cell-based, Lactobacillus acidophilus
# [1] = gene LBA0282 (Hypothetical protein)
# [2] = gene LBA0327 (Replication protein)
# [3] = gene LBA0328 (Hypothetical protein)
# [4] = gene LBA0330 (Hypothetical protein)
# [5] = gene LBA0457 (Hypothetical protein)
# [6] = gene LBA0485 (Hypothetical protein)
# [7] = gene LBA0486 (Hypothetical protein)
# [8] = gene LBA0487 (Hypothetical protein.)
# [9] = gene LBA0492 (Hypothetical protein)
# [10] = gene LBA0541 (Cadmium-transporting ATPase)
# [11] = gene LBA0542 (Putative heavy-metal-transporting alpase)
# [12] = gene LBA0543 (Hypothetical protein)
# [13] = gene LBA0544 (Transcriptional regulator)
# [14] = gene LBA0555 (Myosin-crossreactive antigen)
# [15] = gene LBA0564 (HAD family hydrolase)
# [16] = gene LBA0574 (ABC multi drug exporter)
# [17] = gene LBA0575 (ABC multi drug exporter)
# [18] = gene LBA0604 (Immunity protein)
# [19] = gene LBA0605 (Putative hydrolase)
# [20] = gene LBA0608 (Hypothetical protein)
# [21] = gene LBA0631 (Hypothetical protein)
# [22] = gene LBA0649 (Myosin-crossreactive antigen)
# [23] = gene LBA0728 (Hypothetical protein LBA0728)
# [24] = gene LBA1025 (Aldo/keto reductase family oxidoreductase)
# [25] = gene LBA1026 (Aldo/keto reduetase family oxidoreductase)
# [26] = gene LBA1206 (Hypothetical protein)
# [27] = gene LBA1401 (Peroxidase (Npx))
# [28] = gene LBA1435 (Hypothetical protein)
# [29] = gene LBA1455 (Putative surface layer protein)
# [30] = gene LBA1469 (UDP-glucose 4-epimerase)
# [31] = gene LBA1656 (Hypothetical protein)
# [32] = gene LBA1675 (Hypothetical protein)
# [33] = gene LBA1676 (ATP-dependent helicase)
# [34] = gene LBA1683 (Putative magnesium-transporting atpase)
# [35] = gene LBA1704 (N-Acetylmuramic acid-6-phosphate etherase)
# [36] = gene LBA1740 (Hypothetical protein)
# [37] = gene LBA1752 (Hypothetical protein)
# [38] = gene LBA1769 (Hypothetical protein)
# [39] = gene LBA1793 (Hypothetical protein)
# [40] = gene LBA1869 (Beta-phosphoglueomutase)
# [41] = gene LBA1895 (Hypothetical protein)
# [42] = nTPM on plant glycoside relative to glucose, mid-exponential phase
structure (smiles),measurement,setting,value
N#C[C@H](O[C@@H]1O[C@H](CO[C@@H]2O[C@H](CO)[C@@H](O)[C@H](O)[C@H]2O)[C@@H](O)[C@H](O)[C@H]1O)c1ccccc1 [Amygdalin],Log2 differential normalized TPM ratio compared to glucose,[1],0.2
same,Log2 differential normalized TPM ratio compared to lactose,[1],−0.4
same,Transcripts per million (rpm),[1],20 rpm
same,Log2 differential normalized TPM ratio compared to glucose,[2],−0.9
same,Log2 differential normalized TPM ratio compared to lactose,[2],−1.1
same,Transcripts per million (rpm),[2],3.5 rpm
same,Log2 differential normalized TPM ratio compared to glucose,[3],−0.3
same,Log2 differential normalized TPM ratio compared to lactose,[3],−0.3
same,Transcripts per million (rpm),[3],9 rpm
same,Log2 differential normalized TPM ratio compared to glucose,[4],0.1
same,Log2 differential normalized TPM ratio compared to lactose,[4],−0.2
same,Transcripts per million (rpm),[4],18.2 rpm
same,Log2 differential normalized TPM ratio compared to glucose,[5],1.6
same,Log2 differential normalized TPM ratio compared to lactose,[5],0.6
same,Transcripts per million (rpm),[5],1217.8 rpm
same,Log2 differential normalized TPM ratio compared to glucose,[6],3.3
same,Log2 differential normalized TPM ratio compared to lactose,[6],0.9
same,Transcripts per million (rpm),[6],1655 rpm
same,Log2 differential normalized TPM ratio compared to glucose,[7],3.7
same,Log2 differential normalized TPM ratio compared to lactose,[7],0.9
same,Transcripts per million (rpm),[7],2443 rpm
same,Log2 differential normalized TPM ratio compared to glucose,[8],2.3
same,Log2 differential normalized TPM ratio compared to lactose,[8],1
same,Transcripts per million (rpm),[8],132.1 rpm
same,Log2 differential normalized TPM ratio compared to glucose,[9],5
same,Log2 differential normalized TPM ratio compared to lactose,[9],2.6
same,Transcripts per million (rpm),[9],213.1 rpm
same,Log2 differential normalized TPM ratio compared to glucose,[10],2
same,Log2 differential normalized TPM ratio compared to lactose,[10],−0.2
same,Transcripts per million (rpm),[10],119.7 rpm
same,Log2 differential normalized TPM ratio compared to glucose,[11],2.2
same,Log2 differential normalized TPM ratio compared to lactose,[11],0
same,Transcripts per million (rpm),[11],320.9 rpm
same,Log2 differential normalized TPM ratio compared to glucose,[12],2.4
same,Log2 differential normalized TPM ratio compared to lactose,[12],0
same,Transcripts per million (rpm),[12],283.1 rpm
same,Log2 differential normalized TPM ratio compared to glucose,[13],1.9
same,Log2 differential normalized TPM ratio compared to lactose,[13],−0.1
same,Transcripts per million (rpm),[13],321.3 rpm
same,Log2 differential normalized TPM ratio compared to glucose,[14],6
same,Log2 differential normalized TPM ratio compared to lactose,[14],4.1
same,Transcripts per million (rpm),[14],2251.5 rpm
same,Log2 differential normalized TPM ratio compared to glucose,[15],2.3
same,Log2 differential normalized TPM ratio compared to lactose,[15],1.8
same,Transcripts per million (rpm),[15],4.1 rpm
same,Log2 differential normalized TPM ratio compared to glucose,[16],−1.2
same,Log2 differential normalized TPM ratio compared to lactose,[16],−1.5
same,Transcripts per million (rpm),[16],31.9 rpm
same,Log2 differential normalized TPM ratio compared to glucose,[17],−1
same,Log2 differential normalized TPM ratio compared to lactose,[17],−1.2
same,Transcripts per million (rpm),[17],32.6 rpm
same,Log2 differential normalized TPM ratio compared to glucose,[18],2
same,Log2 differential normalized TPM ratio compared to lactose,[18],1.6
same,Transcripts per million (rpm),[18],49.6 rpm
same,Log2 differential normalized TPM ratio compared to glucose,[19],3.6
same,Log2 differential normalized TPM ratio compared to lactose,[19],2.6
same,Transcripts per million (rpm),[19],26.3 rpm
same,Log2 differential normalized TPM ratio compared to glucose,[20],3.1
same,Log2 differential normalized TPM ratio compared to lactose,[20],2
same,Transcripts per million (rpm),[20],239.3 rpm
same,Log2 differential normalized TPM ratio compared to glucose,[21],7.2
same,Log2 differential normalized TPM ratio compared to lactose,[21],4
same,Transcripts per million (rpm),[21],141786.9 rpm
same,Log2 differential normalized TPM ratio compared to glucose,[22],2.9
same,Log2 differential normalized TPM ratio compared to lactose,[22],2.1
same,Transcripts per million (rpm),[22],228.6 rpm
same,Log2 differential normalized TPM ratio compared to glucose,[23],6
same,Log2 differential normalized TPM ratio compared to lactose,[23],4.2
same,Transcripts per million (rpm),[23],129.5 rpm
same,Log2 differential normalized TPM ratio compared to glucose,gene LBA0861 (Polyferredoxin),0
same,Log2 differential normalized TPM ratio compared to lactose,gene LBA0861 (Polyferredoxin),−0.5
same,Transcripts per million (rpm),gene LBA0861 (Polyferredoxin),153 rpm
same,Log2 differential normalized TPM ratio compared to glucose,gene LBA1023 (Oxidoreductase),−1.5
same,Log2 differential normalized TPM ratio compared to lactose,gene LBA1023 (Oxidoreductase),−1.8
same,Transcripts per million (rpm),gene LBA1023 (Oxidoreductase),18.8 rpm
same,Log2 differential normalized TPM ratio compared to glucose,[24],−1.8
same,Log2 differential normalized TPM ratio compared to lactose,[24],−1.8
same,Transcripts per million (rpm),[24],7.2 rpm
same,Log2 differential normalized TPM ratio compared to glucose,[25],−1.7
same,Log2 differential normalized TPM ratio compared to lactose,[25],−2.1
same,Transcripts per million (rpm),[25],8.1 rpm
same,Log2 differential normalized TPM ratio compared to glucose,gene LBA1027 (Oxidoreductase),2.9
same,Log2 differential normalized TPM ratio compared to lactose,gene LBA1027 (Oxidoreductase),1.4
same,Transcripts per million (rpm),gene LBA1027 (Oxidoreductase),3613.2 rpm
same,Log2 differential normalized TPM ratio compared to glucose,[26],3.2
same,Log2 differential normalized TPM ratio compared to lactose,[26],2
same,Transcripts per million (rpm),[26],984.2 rpm
same,Log2 differential normalized TPM ratio compared to glucose,[27],4.4
same,Log2 differential normalized TPM ratio compared to lactose,[27],2.3
same,Transcripts per million (rpm),[27],1161.2 rpm
same,Log2 differential normalized TPM ratio compared to glucose,[28],7.1
same,Log2 differential normalized TPM ratio compared to lactose,[28],3.3
same,Transcripts per million (rpm),[28],468.3 rpm
same,Log2 differential normalized TPM ratio compared to glucose,[29],2.4
same,Log2 differential normalized TPM ratio compared to lactose,[29],0.8
same,Transcripts per million (rpm),[29],73.9 rpm
same,Log2 differential normalized TPM ratio compared to glucose,[30],2.4
same,Log2 differential normalized TPM ratio compared to lactose,[30],−2.6
same,Transcripts per million (rpm),[30],385.3 rpm
same,Log2 differential normalized TPM ratio compared to glucose,[31],2.6
same,Log2 differential normalized TPM ratio compared to lactose,[31],2.1
same,Transcripts per million (rpm),[31],103.5 rpm
same,Log2 differential normalized TPM ratio compared to glucose,[32],2.1
same,Log2 differential normalized TPM ratio compared to lactose,[32],0.6
same,Transcripts per million (rpm),[32],1397.9 rpm
same,Log2 differential normalized TPM ratio compared to glucose,[33],1.9
same,Log2 differential normalized TPM ratio compared to lactose,[33],0.7
same,Transcripts per million (rpm),[33],953.4 rpm
same,Log2 differential normalized TPM ratio compared to glucose,[34],2
same,Log2 differential normalized TPM ratio compared to lactose,[34],2.3
same,Transcripts per million (rpm),[34],53.6 rpm
same,Log2 differential normalized TPM ratio compared to glucose,[35],2.1
same,Log2 differential normalized TPM ratio compared to lactose,[35],1.4
same,Transcripts per million (rpm),[35],23 rpm
same,Log2 differential normalized TPM ratio compared to glucose,[36],0.1
same,Log2 differential normalized TPM ratio compared to lactose,[36],−0.7
same,Transcripts per million (rpm),[36],15.4 rpm
same,Log2 differential normalized TPM ratio compared to glucose,[37],0.8
same,Log2 differential normalized TPM ratio compared to lactose,[37],0
same,Transcripts per million (rpm),[37],12.1 rpm
same,Log2 differential normalized TPM ratio compared to glucose,[38],3
same,Log2 differential normalized TPM ratio compared to lactose,[38],1.2
same,Transcripts per million (rpm),[38],10240.4 rpm
same,Log2 differential normalized TPM ratio compared to glucose,[39],2.3
same,Log2 differential normalized TPM ratio compared to lactose,[39],−0.5
same,Transcripts per million (rpm),[39],67 rpm
same,Log2 differential normalized TPM ratio compared to glucose,gene LBA1796 (ABC exporter),2.4
same,Log2 differential normalized TPM ratio compared to lactose,gene LBA1796 (ABC exporter),−0.1
same,Transcripts per million (rpm),gene LBA1796 (ABC exporter),39.3 rpm
same,Log2 differential normalized TPM ratio compared to glucose,[40],6.7
same,Log2 differential normalized TPM ratio compared to lactose,[40],4.2
same,Transcripts per million (rpm),[40],670.5 rpm
same,Log2 differential normalized TPM ratio compared to glucose,[41],2.8
same,Log2 differential normalized TPM ratio compared to lactose,[41],2.6
same,Transcripts per million (rpm),[41],152.2 rpm
same,"Log2 Ratio vs Glc, LBA0225 Phospho-β-glucosidase (GH1)",[42],6.5
same,"Log2 Ratio vs Glc, LBA0227 PTS EIIC",[42],9.9
same,"Log2 Ratio vs Glc, LBA0228 Transcriptional regulator",[42],6.3
same,"Log2 Ratio vs Glc, LBA0466 Phosphoenolpyruvate carboxykinase (ATP)",[42],5.2
same,"Log2 Ratio vs Glc, LBA0491 PTS EIIC",[42],4.7
same,"Log2 Ratio vs Glc, LBA0492 Hypothetical protein",[42],5
same,"Log2 Ratio vs Glc, LBA0555 Myosin-cross-reactive antigen/Fatty acid hydratase",[42],6
same,"Log2 Ratio vs Glc, LBA0606 PTS EIIBC",[42],4.9
same,"Log2 Ratio vs Glc, LBA0631 Hypothetical protein",[42],7.2
same,"Log2 Ratio vs Glc, LBA0724 Transcriptional regulator (antiterminator)",[42],6.4
same,"Log2 Ratio vs Glc, LBA0725 PTS EIICBA",[42],9.7
same,"Log2 Ratio vs Glc, LBA0726 Phospho-β-glucosidase (GH1)",[42],7.2
same,"Log2 Ratio vs Glc, LBA0728 Hypothetical protein",[42],6
same,"Log2 Ratio vs Glc, LBA0876 PTS EIIC",[42],4.4
same,"Log2 Ratio vs Glc, LBA0877 PTS EIIA",[42],4.6
same,"Log2 Ratio vs Glc, LBA1401 Peroxidase (Npx)",[42],4.4
same,"Log2 Ratio vs Glc, LBA1411 Fumarate reductase flavoprotein subunit",[42],4
same,"Log2 Ratio vs Glc, LBA1433 Dihydroxyacetone kinase",[42],6
same,"Log2 Ratio vs Glc, LBA1434 Dihydroxyacetone kinase",[42],6.7
same,"Log2 Ratio vs Glc, LBA1435 Hypothetical protein",[42],7.1
same,"Log2 Ratio vs Glc, LBA1436 Glycerol uptake facilitator protein",[42],7.2
same,"Log2 Ratio vs Glc, LBA1632 NAD-dependent aldehyde dehydrogenase",[42],4.4
same,"Log2 Ratio vs Glc, LBA1684 PTS EIIA",[42],6.6
same,"Log2 Ratio vs Glc, LBA1689 Maltose-6′-phosphate glucosidase (GH4)",[42],5.3
same,"Log2 Ratio vs Glc, LBA1701 Melibiose operon regulatory protein",[42],5.3
same,"Log2 Ratio vs Glc, LBA1709 Mucus binding protein precursor",[42],4.5
same,"Log2 Ratio vs Glc, LBA1797 Hypothetical protein",[42],4.7
same,"Log2 Ratio vs Glc, LBA1812 α-Glucosidase II (GH31)",[42],5.3
same,"Log2 Ratio vs Glc, LBA1869 β-Phosphoglucomutase",[42],6.7
same,"Log2 Ratio vs Glc, LBA1871 Neopullulanase (GH13)",[42],4.3
same,"Log2 Ratio vs Glc, LBA1873 Acetate kinase",[42],4.6
same,"Log2 Ratio vs Glc, LBA1974 Pyruvate oxidase",[42],5.5
